Tested on: K86415-001-R-J1-PDC complex spheroids, viability
Assay: Anticancer human tumor K86415-001-R-J1-PDC patient-derived lung adenocarcinoma cell line growth inhibition [RAS]
Conditions: for IC50: curve of first compound; for viability, T/C: stronger effect = lower value
From the text: RAS pathway inhibitors in Combinations in Complex Spheroids
A high-throughput screen of multi-cell type tumor spheroids was designed to identify active combinations of RAS pathway inhibitors and targeted small molecules. Complex spheroids include a stromal component modeled by human endothelial cells (HUVEC) and fibroblasts modeled by human mesenchymal stem cells (MSCs). The concentration ranges selected for each drug and investigational agent were based upon clinically achievable concentrations if the clinical Cmax of the agent was known.
Compounds. The drugs and investigational agents: abemaciclib (NSC768073), cobimetinib (NSC768068), divarasib (GDC6063, NSC841802), docetaxel (NSC628503), GDC-1971 (RLY-1971, NSC841576), gemcitabine (NSC613327), inavolisib (NSC800729), ipatasertib (NSC767898), KB-0742 (NSC834161), MRTX-1133 (NSC836407), osimertinib (NSC779217), RMC-4630 (NSC839698), RMC-6236 (NSC851965), RMC-6291 (NSC852671), Ro-3306 (NSC812927), sapanisertib (NSC764658), SN-38 (NSC673596), staurosporine (NSC755774), SY5609 (NSC837396), and tovorafenib (DAY101, NSC766906), were obtained from the National Cancer Institute (NCI) Developmental Therapeutics Program Chemical Repository. The FDA-approved anticancer drug set is available from the NCI Developmental Therapeutics Program. […] The stock solutions were prepared in dimethyl sulfoxide (DMSO, Sigma-Aldrich, St. Louis, MO, cat. D2650) at 800-fold the tested concentration and stored at -70 degrees C prior to their use. All drugs and investigational agents were tested over a range starting from a high concentration at or near the clinical Cmax and decreasing in half-log increments. If the clinical Cmax for an agent had not been determined, the highest concentration tested was 10 microM.
Cell Culture. All cells were maintained in an incubator at 37 degrees C and 5% CO2 with 95% humidity. The PDC lines were cultured according to standard operating procedures established by the NCI PDMR. All PDCs were thawed and cultured in Matrigel-coated flasks prepared with a working solution of 1X Ham's F-12 nutrient mix, without supplementation (Invitrogen, Waltham, MA, cat. 11765054), 100 U/mL penicillin-streptomycin (Invitrogen, cat. 15140122), and 2.5% Matrigel (Corning Inc., Corning, NY, cat. 354248) for the first three passages. The 362531-283-R-J2-PDC and 782815-120-R-J1-PDC lines were cultured in 6C/Colon 1B media, which includes advanced DMEM/F-12 (Thermo Fisher Scientific, cat. 12634028), 10 mM HEPES (Thermo Fisher Scientific, cat. 15630080), 1X GlutaMAX supplement (Thermo Fisher Scientific, cat. 35050061), 0.1 mg/mL primocin (InvivoGen, San Diego, CA, cat. ant-pm-2), 10% defined fetal bovine serum, heat inactivated (HyClone Laboratories Inc., Logan, UT, cat. SH30070.03HI), 50% L-WRN conditioned media (ATCC, cat. CRL-3276), 1.25 mM N-Acetyl-L-cysteine (Sigma-Aldrich, cat. A9165), 10 mM nicotinamide (Sigma-Aldrich, cat. N0636), 1X B-27 supplement (Thermo Fisher Scientific, cat. 17504044), 1X N-2 supplement (Thermo Fisher Scientific, cat. 17502048), 50 ng/mL human EGF (Thermo Fisher Scientific, cat. PHG0311), and 10 microM Y-27632 dihydrochloride (Tocris Bioscience, cat. 1254). The K12877-001-R-J1-PDC line was cultured in 6I media, which includes all 6C/Colon 1B media plus 10 ng/mL human FGF-10 (PeproTech, cat. 100-26), 1 ng/mL human FGF-2 (PeproTech, cat. 100-18B), 1 µM prostaglandin E2 (Tocris Bioscience, cat. 2296), […] hydrocortisone (Sigma-Aldrich, cat. H4001), and […] bovine insulin (Sigma-Aldrich, cat. I6634). The K86415-001-R-J1-PDC line was cultured in 6D media, which includes all 6C/Colon 1B media components minus the L-WRN conditioned media. The 485176-168-R4-J1-PDC was cultured in PANC media, which includes all 6C/Colon 1B media plus 100 ng/mL human FGF-10 (PeproTech, cat. 100-26), 500 nM SB-431542 (Selleckchem, cat. S1067), and 10 nM gastrin (Tocris Bioscience, cat. 3006). […]
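Note: spheroids exposed to agents for seven days before readout.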

## Nc1ccn(C2OC(CO)C(O)C2(F)F)c(=O)n1 (configuration not stated) + C#Cc1c(F)ccc2cc(O)cc(-c3ncc4c(N5CC6CCC(C5)N6)nc(OCC56CCCN5CC(F)C6)nc4c3F)c12
Second compound 0.0316 µM
  IC50: 0.0833 µM
Second compound 0.1 µM
  IC50: 0.093 µM
Second compound 0.316 µM
  IC50: 0.07 µM
Second compound 1 µM
  IC50: 0.0455 µM
Second compound 3.16 µM
  IC50: < 0.00316 µM
Second compound 10 µM
  IC50: < 0.00316 µM
Second compound 0.0316 µM, first compound 0.00316 µM
  viability, T/C: 92.8%
Second compound 0.0316 µM, first compound 0.01 µM
  viability, T/C: 95%
Second compound 0.0316 µM, first compound 0.0316 µM
  viability, T/C: 70%
Second compound 0.0316 µM, first compound 0.1 µM
  viability, T/C: 48.2%
Second compound 0.0316 µM, first compound 0.316 µM
  viability, T/C: 24.9%
Second compound 0.0316 µM, first compound 1 µM
  viability, T/C: 21.6%
Second compound 0.1 µM, first compound 0.00316 µM
  viability, T/C: 92.6%
Second compound 0.1 µM, first compound 0.01 µM
  viability, T/C: 96.6%
Second compound 0.1 µM, first compound 0.0316 µM
  viability, T/C: 70.8%
Second compound 0.1 µM, first compound 0.1 µM
  viability, T/C: 50.7%
Second compound 0.1 µM, first compound 0.316 µM
  viability, T/C: 26.6%
Second compound 0.1 µM, first compound 1 µM
  viability, T/C: 19.6%
Second compound 0.316 µM, first compound 0.00316 µM
  viability, T/C: 90%
Second compound 0.316 µM, first compound 0.01 µM
  viability, T/C: 83.3%
Second compound 0.316 µM, first compound 0.0316 µM
  viability, T/C: 60.3%
Second compound 0.316 µM, first compound 0.1 µM
  viability, T/C: 48.1%
Second compound 0.316 µM, first compound 0.316 µM
  viability, T/C: 23.8%
Second compound 0.316 µM, first compound 1 µM
  viability, T/C: 19.5%
Second compound 1 µM, first compound 0.00316 µM
  viability, T/C: 79.1%
Second compound 1 µM, first compound 0.01 µM
  viability, T/C: 69.5%
Second compound 1 µM, first compound 0.0316 µM
  viability, T/C: 54%
Second compound 1 µM, first compound 0.1 µM
  viability, T/C: 40.9%
Second compound 1 µM, first compound 0.316 µM
  viability, T/C: 22.7%
Second compound 1 µM, first compound 1 µM
  viability, T/C: 15.7%
Second compound 3.16 µM, first compound 0.00316 µM
  viability, T/C: 41.3%
Second compound 3.16 µM, first compound 0.01 µM
  viability, T/C: 35.4%
Second compound 3.16 µM, first compound 0.0316 µM
  viability, T/C: 29.7%
Second compound 3.16 µM, first compound 0.1 µM
  viability, T/C: 28.9%
Second compound 3.16 µM, first compound 0.316 µM
  viability, T/C: 23.6%
Second compound 3.16 µM, first compound 1 µM
  viability, T/C: 21.2%
Second compound 10 µM, first compound 0.00316 µM
  viability, T/C: 17.4%
Second compound 10 µM, first compound 0.01 µM
  viability, T/C: 17%
Second compound 10 µM, first compound 0.0316 µM
  viability, T/C: 16.8%
Second compound 10 µM, first compound 0.1 µM
  viability, T/C: 13.6%
Second compound 10 µM, first compound 0.316 µM
  viability, T/C: 15.5%
Second compound 10 µM, first compound 1 µM
  viability, T/C: 14.5%
